Measured values taken from publication PMC6767265, “Cytotoxicity and Apoptosis Induction of Coumarins and Carbazole Alkaloids from Clausena Harmandiana” (Molecules, 2019).
Marks after values point to notes of the source that are not given here.

system: human colon carcinoma cell line (HCT116); experiment: Cell viability assay (neutral red), HCT116; assay type: cell-based; conditions: Homo sapiens, HCT-116; 24 h, neutral red; inactive = viability >50% at >100 µM
Protocol: (§1) The human lung adenocarcinoma cell line (SK-LU-1), human colon carcinoma cell line (HCT116), human hepatocellular carcinoma cell line (HepG2) and noncancerous African green monkey kidney epithelial cell line (Vero) were cultured in Dulbecco’s modified Eagle’s medium (DMEM) supplemented with 10% fetal bovine serum, 100 IU/mL penicillin and […] streptomycin. Cells were incubated at 37 °C with 95% air and 5% CO2 until they reached approximately 80% confluence before use.
(§2) Cell viability assay was assessed by neutral red (NR). Briefly, cells at a density of 3 × 10^4 cells/well were seeded in 96-wells plate and incubated for 24 h. […] After incubation time, cells were washed with PBS. NR reagent (50 µg/mL) was added to each well and incubated for another 2 h. After that, cells were washed with PBS and lyzed with 0.33% HCl in isopropanol. Cisplatin was used as a positive control. The absorbance of NR was detected using microplate reader (Tecan, Lyon, France) at 520 nm. The percentage of cell viability was calculated vis-à-vis the untreated cells and cytotoxicity was expressed as the inhibition concentration at 50% (IC50). The final DMSO concentration was not exceed 0.1%v/v to lessen the cytotoxicity (<10%).

| SMILES | IC50 |
| --- | --- |
| C=CC(C)(C)c1c2c(c(OC)c3ccc(=O)oc13)C=CC(C)(C)O2 [Dentatin (3), dentatin] | 73.9 ± 2.5 µM |
| CC(C)=CCc1c(O)c(C=O)cc2c1[nH]c1ccccc12 [Heptaphylline (1), heptaphylline] | 74.7 ± 2.1 µM |
| C=CC(C)(C)c1c2c(c(O)c3ccc(=O)oc13)C=CC(C)(C)O2 [Nordentatin (6), nordentatin] | 63.6 ± 2.3 µM |

same assay, conditions: cancer cells over noncancerous Vero cells

| SMILES | Selectivity Index HCT116 |
| --- | --- |
| C=CC(C)(C)c1c2c(c(OC)c3ccc(=O)oc13)C=CC(C)(C)O2 [Dentatin (3), dentatin] | (1.4) |
| CC(C)=CCc1c(O)c(C=O)cc2c1[nH]c1ccccc12 [Heptaphylline (1), heptaphylline] | (1.3) |
| C=CC(C)(C)c1c2c(c(O)c3ccc(=O)oc13)C=CC(C)(C)O2 [Nordentatin (6), nordentatin] | (1.6) |

system: noncancerous African green monkey kidney epithelial cell line (Vero); experiment: Cell viability assay (neutral red), Vero; assay type: cell-based; parameters: key to IC50 Vero: inactive: Inactive means cell viability percentage was >50% at the maximum concentration used (>100 µM for the compound or >100 µg/mL for the extract); conditions: 24 h, inactive = viability >50% at >100 µM
Protocol: as §1
(§3) Cell viability assay was assessed by neutral red (NR). Briefly, cells at a density of 3 × 10^4 cells/well were seeded in 96-wells plate and incubated for 24 h. The sample at concentration, ranging from 10 to 500 µM, were added and incubated for 24 h. After incubation time, cells were washed with PBS. NR reagent (50 µg/mL) was added to each well and incubated for another 2 h. After that, cells were washed with PBS and lyzed with 0.33% HCl in isopropanol. Cisplatin was used as a positive control. The absorbance of NR was detected using microplate reader (Tecan, Lyon, France) at 520 nm. The percentage of cell viability was calculated vis-à-vis the untreated cells and cytotoxicity was expressed as the inhibition concentration at 50% (IC50). The final DMSO concentration was not exceed 0.1%v/v to lessen the cytotoxicity (<10%).

| SMILES | IC50 Vero |
| --- | --- |
| C=CC(C)(C)c1c2c(c(OC)c3ccc(=O)oc13)C=CC(C)(C)O2 [Dentatin (3), dentatin] | inactive^cB |
| CC(C)=CCc1c(O)c(C=O)cc2c1[nH]c1ccccc12 [Heptaphylline (1), heptaphylline] | inactive^dB |
| C=CC(C)(C)c1c2c(c(O)c3ccc(=O)oc13)C=CC(C)(C)O2 [Nordentatin (6), nordentatin] | inactive^cB |

system: human hepatocellular carcinoma cell line (HepG2); experiment: Cell viability assay (neutral red), HepG2; assay type: cell-based; conditions: Homo sapiens, HepG2; 24 h, neutral red
Protocol: as §1, §3

| SMILES | IC50 |
| --- | --- |
| C=CC(C)(C)c1c2c(c(OC)c3ccc(=O)oc13)C=CC(C)(C)O2 [Dentatin (3), dentatin] | 47.6 ± 2.8 µM |
| CC(C)=CCc1c(O)c(C=O)cc2c1[nH]c1ccccc12 [Heptaphylline (1), heptaphylline] | 37.8 ± 2.6 µM |
| C=CC(C)(C)c1c2c(c(O)c3ccc(=O)oc13)C=CC(C)(C)O2 [Nordentatin (6), nordentatin] | 29.9 ± 3.2 µM |

same assay, conditions: cancer cells over noncancerous Vero cells

| SMILES | Selectivity Index HepG2 |
| --- | --- |
| C=CC(C)(C)c1c2c(c(OC)c3ccc(=O)oc13)C=CC(C)(C)O2 [Dentatin (3), dentatin] | (2.1) |
| CC(C)=CCc1c(O)c(C=O)cc2c1[nH]c1ccccc12 [Heptaphylline (1), heptaphylline] | (2.6) |
| C=CC(C)(C)c1c2c(c(O)c3ccc(=O)oc13)C=CC(C)(C)O2 [Nordentatin (6), nordentatin] | (3.3) |

system: not listed separately; experiment: Ferric reducing antioxidant power (FRAP) assay; assay type: biochemical; conditions: 100 µM compound
Protocol: FRAP assay was performed following the pervious study with slight modification. FRAP reagent was prepared by mixing 300 mM acetate buffer (pH 3.6), 20 mM ferric chloride solution and 10 mM TPTZ solution in the ratio of 10:1:1 and incubated at 37 °C for 30 min. Then, 150 µL of FRAP reagent was added with 50 µL of the sample (100 µM of isolated compounds or 100 µg/mL of the CH2Cl2 crude extract) in each well of the 96-wells plate. The absorbance was measured at 595 nm using microplate reader (Tecan, Lyon, France). Trolox was used as a positive control. The FRAP value was calculated from the linear equation between the absorbance and ferrous sulfate standard curves (y = 0.0548x + 0.0213, R^2 = 0.9989) and expressed as µM of ferrous sulfate equivalents.

| SMILES | FRAP Value |
| --- | --- |
| C=CC(C)(C)c1c2c(c(OC)c3ccc(=O)oc13)C=CC(C)(C)O2 [Dentatin (3), dentatin] | 4.7 ± 0.1^f µM FeSO4 Equivalents |
| CC(C)=CCc1c(O)c(C=O)cc2c1[nH]c1ccccc12 [Heptaphylline (1), heptaphylline] | 1.0 ± 0.0^g µM FeSO4 Equivalents |
| C=CC(C)(C)c1c2c(c(O)c3ccc(=O)oc13)C=CC(C)(C)O2 [Nordentatin (6), nordentatin] | 9.0 ± 1.1^e µM FeSO4 Equivalents |
| Cc1c(C)c2c(c(C)c1O)CCC(C)(C(=O)O)O2 (centres unmarked) [Trolox, 6-hydroxy-2,5,7,8-tetramethylchroman-2-carboxylic acid, reference compound] | 37.7 ± 0.8^c µM FeSO4 Equivalents |

same assay, conditions: 100 µM compound; listed as dentatin

| SMILES | FRAP Value |
| --- | --- |
| C=CC(C)(C)c1c2c(c(OC)c3ccc(=O)oc13)C=CC(C)(C)O2 [Dentatin (3), dentatin] | 4.7 µM FeSO4 Equivalents |

same assay, conditions: 100 µM compound; listed as heptaphylline

| SMILES | FRAP Value |
| --- | --- |
| CC(C)=CCc1c(O)c(C=O)cc2c1[nH]c1ccccc12 [Heptaphylline (1), heptaphylline] | 1.0 µM FeSO4 Equivalents |

same assay, conditions: 100 µM compound; listed as nordentatin

| SMILES | FRAP Value |
| --- | --- |
| C=CC(C)(C)c1c2c(c(O)c3ccc(=O)oc13)C=CC(C)(C)O2 [Nordentatin (6), nordentatin] | 9.0 µM FeSO4 Equivalents |

same assay, conditions: 100 µM compound; listed as trolox

| SMILES | FRAP Value |
| --- | --- |
| Cc1c(C)c2c(c(C)c1O)CCC(C)(C(=O)O)O2 (centres unmarked) [Trolox, 6-hydroxy-2,5,7,8-tetramethylchroman-2-carboxylic acid, reference compound] | 37.7 µM FeSO4 Equivalents |

system: human lung adenocarcinoma cell line (SK-LU-1); experiment: Cell viability assay (neutral red), SK-LU-1; assay type: cell-based; conditions: Homo sapiens, SK-LU-1; 24 h, neutral red; inactive = viability >50% at >100 µM
Protocol: as §1, §2

| SMILES | IC50 |
| --- | --- |
| C=CC(C)(C)c1c2c(c(OC)c3ccc(=O)oc13)C=CC(C)(C)O2 [Dentatin (3), dentatin] | 45.4 ± 2.5 µM |
| CC(C)=CCc1c(O)c(C=O)cc2c1[nH]c1ccccc12 [Heptaphylline (1), heptaphylline] | 83.1 ± 2.6 µM |
| C=CC(C)(C)c1c2c(c(O)c3ccc(=O)oc13)C=CC(C)(C)O2 [Nordentatin (6), nordentatin] | 67.3 ± 1.2 µM |

same assay, conditions: cancer cells over noncancerous Vero cells

| SMILES | Selectivity Index SK-LU-1 |
| --- | --- |
| C=CC(C)(C)c1c2c(c(OC)c3ccc(=O)oc13)C=CC(C)(C)O2 [Dentatin (3), dentatin] | (2.2) |
| CC(C)=CCc1c(O)c(C=O)cc2c1[nH]c1ccccc12 [Heptaphylline (1), heptaphylline] | (1.2) |
| C=CC(C)(C)c1c2c(c(O)c3ccc(=O)oc13)C=CC(C)(C)O2 [Nordentatin (6), nordentatin] | (1.5) |

system: not listed separately; experiment: DPPH radical scavenging assay; assay type: biochemical; conditions: 30 min in the dark, absorbance 517 nm
Protocol: The 2,2–diphenyl–1–picrylhydrazyl (DPPH) radical scavenging assay was conducted as per the previous method. Briefly, the stock solutions of 10 mM DPPH was prepared in methanol. The DPPH was mixed with samples (100 µL each) at various concentrations (1−500 µM) in 96 wells plate and incubated for 30 min in a dark condition. The absorbance of DPPH radical was measured at 517 nm using a microplate reader (Tecan, Lyon, France). Trolox was used as a positive control. The half maximum inhibitory concentration (IC50 value) was calculated from the plot of percentage of DDPH radical inhibition versus concentration of samples using the following formula: % DPPH radical inhibition = [(Ab − As)/Ab] × 100,(1) where Ab = absorbance of the reagent blank, and As = absorbance of the sample. Each experiment was done in five replications and results are expressed as average values.

| SMILES | DPPH Assay IC50 | IC50 |
| --- | --- | --- |
| C=CC(C)(C)c1c2c(c(OC)c3ccc(=O)oc13)C=CC(C)(C)O2 [Dentatin (3), dentatin] | >500^h µg/mL | > 500 µM |
| CC(C)=CCc1c(O)c(C=O)cc2c1[nH]c1ccccc12 [Heptaphylline (1), heptaphylline] | 93.5 ± 2.2^f µg/mL | 335 ± 7.8 µM |
| C=CC(C)(C)c1c2c(c(O)c3ccc(=O)oc13)C=CC(C)(C)O2 [Nordentatin (6), nordentatin] | 12.0 ± 0.8^c µg/mL | 38.3 ± 2.5 µM |
| Cc1c(C)c2c(c(C)c1O)CCC(C)(C(=O)O)O2 (centres unmarked) [Trolox, 6-hydroxy-2,5,7,8-tetramethylchroman-2-carboxylic acid, reference compound] | 4.2 ± 0.1^a µg/mL | 16.8 ± 0.6 µM |

same assay, conditions: classified from IC50 in µg/mL

| SMILES | DPPH radical scavenging activity classification |
| --- | --- |
| C=CC(C)(C)c1c2c(c(OC)c3ccc(=O)oc13)C=CC(C)(C)O2 [Dentatin (3), dentatin] | no activity |
| CC(C)=CCc1c(O)c(C=O)cc2c1[nH]c1ccccc12 [Heptaphylline (1), heptaphylline] | low radical scavenger |
| C=CC(C)(C)c1c2c(c(O)c3ccc(=O)oc13)C=CC(C)(C)O2 [Nordentatin (6), nordentatin] | moderate radical scavenger |
| Cc1c(C)c2c(c(C)c1O)CCC(C)(C(=O)O)O2 (centres unmarked) [Trolox, 6-hydroxy-2,5,7,8-tetramethylchroman-2-carboxylic acid, reference compound] | moderate radical scavenger |
